According to patent US20260207589A1, “Combination of Talazoparib and Enzalutamide in the Treatment of Metastatic Castration-Resistant Prostate Cancer” (Pfizer Inc., priority 2022, published 2026):

Assays:
[1] = system: patients with mCRPC with HRR gene alterations; conditions: male, human, in vivo
[2] = system: patients with mCRPC with HRR gene alterations; assay: TALAPRO-2 (NCT03395197) Phase 3, Part 2, DDR/HRR-deficient cohort (Cohort 2): efficacy; type: in vivo, human
Method: In one embodiment, the increase in survival is measured by any of the following: progression free survival (PFS), radiographic PFS (rPFS), and overall survival (OS). PFS, rPFS and OS are clinically meaningful endpoints for measuring an increase in survival for patients treated with the combination of the present invention. […] OS is the length of time from either the date of diagnosis or the start of treatment for a disease, such as cancer, that patients diagnosed with the disease are still alive. In a clinical trial, measuring the PFS and OS are ways to see how well a new treatment works. For purposes of the clinical trial described here, rPFS refers to the time from the date of randomization to first objective evidence of radiographic progression assessed in soft tissue per Response Evaluation Criteria in Solid Tumors version 1.1 (RECIST 1.1) or in bone (upon subsequent confirmation) per Prostate Cancer Working Group (PCWG3) guidelines by Blinded Independent Central Review (BICR), or death, whichever occurs first. For purposes of the clinical trial described here, OS refers to the time from the date of randomization to death due to any cause.
This was an international, Phase 3, randomized, double-blind, two-part study for mCRPC patients, TALAPRO-2 (NCT03395197).
Part 2 was randomized, double-blind, and placebo-controlled and evaluated the efficacy and safety of talazoparib in combination with enzalutamide compared with placebo in combination with enzalutamide. From February 2019 to January 2022, 399 patients (169 from Cohort 1) were randomized 1:1 to receive either talazoparib or matching placebo in combination with open-label enzalutamide once daily. Randomization was stratified by prior novel hormonal therapy or taxane-based chemotherapy, e.g., abiraterone, orteronel, or docetaxel for castration-sensitive prostate cancer (yes/no) and DDR mutational status, also referred to as, homologous recombination repair gene alteration status (deficient vs. non deficient/unknown). Stratification factors were specified by the investigator, and recorded in the interactive web response system (IWRS) before randomization and used for the stratified analysis of the primary efficacy endpoint. However, as the IWRS grouped non-deficient and unknown status, a secondary stratified analysis based on homologous recombination repair gene alteration status derived from the clinical database was also performed and used to identify the non-deficient subpopulation.
Genomic screening to identify alterations in DDR genes was optional for patients in Part 1, but it was required for randomization in Part 2. Mutational status was determined by testing for the presence of mutations in defined DDR genes likely to sensitize to PARP inhibition using next generation sequencing (NGS) based gene panel test. Prior to randomization, patients consented to provide solid tumor tissue (de novo or archival) and/or blood-based samples, which were prospectively assessed for homologous recombination repair (HRR) gene alterations (BRCA1, BRCA2, PALB2, ATM, ATR, CHEK2, FANCA, RAD51C, NBN, MLH1, MRE11A, CDK12) using FoundationOne® CDx and/or FoundationOneLiquid® CDx. […] One patient was enrolled based on ctDNA results only. For exploratory analysis, available blood-based samples (not collected in China) were retrospectively tested using FoundationOneLiquid® CDx to determine the status of patients with a prospectively-assessed status of unknown.

[3] = BICR, measurable soft tissue disease
[4] = DDR-deficient population, overall
[5] = Non-BRCAm HRRm incl. 4 patients without HRR gene mutations (N = 129 vs 115)

CNC(=O)c1ccc(N2C(=S)N(c3ccc(C#N)c(C(F)(F)F)c3)C(=O)C2(C)C)cc1F [Placebo + Enzalutamide]
Patients with Grade 3 or higher TRAEs [1]: 28 (14) n (%) | Patients with any TRAEs [1]: 144 (72.4) n (%) | CR rate [2, 3]: 18.5% | PD rate [2, 3]: 20.0% | PR rate [2, 3]: 21.5% | rPFS events by BICR ([2]; BRCA1/2 mutations subgroup): 54 events | rPFS, Number of events ([2]; BRCAm (N = 71 vs 84)): 54 (64) n (%) | Median PFS2 ([2]; DDR-deficient population): 28.1 months | Median investigator-assessed rPFS ([2]; DDR-deficient population): 16.9 months | Median time to use of cytotoxic chemotherapy ([2]; DDR-deficient population): NE/NR | PFS2 events ([2]; DDR-deficient population): 61 events | PSA response rate (decline from baseline PSA by at least 50%, confirmed) ([2]; DDR-deficient population): 63.1% | Time to cytotoxic chemotherapy, events ([2]; DDR-deficient population): 65 events | Median rPFS by BICR [2, 4]: 13.8 months | rPFS events by BICR [2, 4]: 104 events | Median OS ([2]; DDR-deficient population, interim): 33.7 months | rPFS, Median months (95% CI) [2, 5]: 16.7 (13.8, 27.7) months | rPFS, Number of events [2, 5]: 50 (43) n (%) | rPFS by BICR, Median ([2]; gene subgroup: ATM Cluster): 27.7 mo | rPFS by BICR, Median ([2]; gene subgroup: All HRR-deficient): 13.8 mo | rPFS by BICR, Median ([2]; gene subgroup: BRCA Cluster): 11.0 mo | rPFS by BICR, Median ([2]; gene subgroup: CDK12 Cluster): 13.8 mo | rPFS by BICR, Median ([2]; gene subgroup: Only ATM): 27.7 mo | rPFS by BICR, Median ([2]; gene subgroup: Only BRCA1): 11.7 mo | rPFS by BICR, Median ([2]; gene subgroup: Only BRCA2): 11.0 mo | rPFS by BICR, Median ([2]; gene subgroup: Only CDK12): 13.8 mo | rPFS by BICR, Median ([2]; gene subgroup: Only PALB2): 8.6 mo | rPFS by BICR, Median ([2]; gene subgroup: PALB2 Cluster): 8.3 mo | patients who had died ([2]; interim OS analysis, 24% maturity overall): 26.6% | OS events (deaths) ([2]; interim OS analysis, 96 deaths): 53 events | Median OS (printed: Median rPFS) ([2]; non-BRCA1/2 mutations subgroup): 33.7 months | rPFS events by BICR ([2]; non-BRCA1/2 mutations subgroup): 50 events | Median rPFS by BICR ([2]; non-BRCA1/2 mutations subgroup, N=240): 16.7 months | Objective response rate by BICR (RECIST 1.1) ([2]; patients with measurable soft tissue disease at baseline): 40.0%
